Reference: patent publication US10087156B2, “Methods and compositions related to retinoid receptor-selective pathway” (Sanford Burnham Prebys Medical Discovery Institute, priority 2010, dated 2018)

What was measured:
cancer = assay: Preventing cancer in a human patient; assay type: in vivo; conditions: 150 mg tablet twice daily
Protocol: A human patient with an elevated risk of developing cancer relative to the general population is identified and instructed to take a 150 mg tablet containing the active ingredient K-80003 twice daily.

COX-1 = biological target: T1, COX-1 (Ovis aries, UniProt P05979); assay: COX activity assay; assay type: biochemical
T1 construct: purchased Cayman Chemical 700100
Protocol: (§1) COX Fluorescent Activity Assay Kit (700200), COX Fluorescent Inhibitor Screening Assay Kit (700100) and Prostaglandin E2 Enzyme Immunoassay (EIA) Kit (514010) were obtained from Cayman Chemical (Ann Arbor, Mich.). COX-1 and COX-2 activity assay were performed according to the manufacturer's protocol.

COX-2 = biological target: T2, COX-2 (Homo sapiens, UniProt P35354); assay: COX activity assay; assay type: biochemical
T2 construct: purchased Cayman Chemical 700100
Protocol: as §1

RXRα = biological target: T3, RXRα (Homo sapiens, UniProt P19793); assay: HPLC analysis of sulindac sulfide binding to receptor protein in cells; conditions: HEK293T cells stably expressing TAP-tagged receptor, 100 μM, 3 hr
T3 construct: expressed in transfected cells
Protocol: (§2) Competitive ligand-binding assays (FIG. 1A) and HPLC analysis of Sulindac binding to RXRα, Nur77, or RARβ in HEK293T cells (FIG. 1B) were performed. RXRα LBD protein was incubated with [^3H]9-cis-RA in the presence or absence of Sulindac or unlabeled 9-cis-RA. Bound [^3H]9-cis-RA was quantitated by liquid scintillation counting (FIG. 1A). HEK293T cells stably expressing RXRαfused to a C-terminal TAP tag (Stratagene, La Jolla, Calif.) were treated with or without 100 μM sulindac sulfide for 3 hr. After treatment, cells were purified and analyzed by HPLC for the presence of sulindac sulfide. A standard solution of sulindac sulfide was used to obtain the calibration curve. Characteristic peak spectrum and retention time was used for identification, and peak areas at max used for quantification were calculated (FIGS. 1B and 10).
(§3) Expression vector containing receptor fused to C-terminal TAP fusion (Stratagene, La Jolla, Calif.) was transfected into HEK293 cells using FuGene 6 transfection reagent (Roche, Basel, Switzerland). The cells were maintained in exponential growth in complete medium, DMEM (Mediatech Inc., Herndon, Va.) supplemented with 10% calf serum (SCS, Hyclone Logan, Utah), 2 mM glutamine, penicillin (100 U/ml) and streptomycin (100 μg/ml). At two days post-transfection cells were switched into medium containing […] G418 until 20 days post-transfection, when dishes were scored for drug-resistant colonies. Expression of RXRα fusion protein was determined by immunoblotting. […] A standard solution of sulindac sulfide was used to obtain the calibration curve.

Nur77 = biological target: T4, Nur77 (Homo sapiens, UniProt P22736); assay: as above; conditions: HEK293T cells, 100 μM, 3 hr
T4 construct: expressed in transfected cells
Protocol: as §2, §3

RARβ = biological target: T5, RARβ (Homo sapiens, UniProt P10826); assay: as above; conditions: HEK293T cells, 100 μM, 3 hr
T5 construct: expressed in transfected cells
Protocol: as §2, §3

RXRα LBD = RXRα LBD (Homo sapiens, UniProt P19793); assay: Proteolytic protection assay (chymotrypsin sensitivity); assay type: binding; conditions: 100 μM
Protocol: Altered sensitivity of RXRα ligand-binding domain (LBD) to chymotrypsin (ug/ml) by Sulindac (100 μM) (FIG. 1C) and differential scanning calorimetry (DSC) scans comparing ^19F NMR spectra of Sulindac (100 μM) in the absence and presence of 10 μM RXRα LBD or Nur77 protein (FIG. 1D) were also determined. Binding to RXRα was confirmed by altered sensitivity of RXRα to chymotrypsin digestion by Sulindac (FIG. 1C) and differential scanning calorimetry (DSC) (FIG. 1D). In addition, inhibition of SR11237 (10^−6 M)-activated RXRα transactivation by Sulindac was measured (FIG. 1F, see Example 2).
RXRα LBD was synthesized by in vitro transcription-translation using rabbit reticulocyte lysates (Promega, Fitchburg, Wis.) as described previously (Kolluri, S. K. et al., Proc Natl Acad Sci USA 102 (7), 2525-2530 (2005); Zhang, X. K. et al., Nature 355 (6359), 441-446 (1992); Zhang, X.-K. et al., Nature. 358 (6387), 587-591 (1992)). In vitro translated ^35[S]methionine labeled RXRα-LBD was preincubated with solvent (1% DMSO), Sulindac (100 μM) or 9-cis-RA (10^−7 M) for 30 min. and then digested with indicated concentration of chymotrypsin. Digested fragments were separated by PAGE.

HepG2 cells = assay: Bax activation by Bax/6A7 immunostaining; assay type: cell-based
Protocol: Activation of Bax by Sulindac and TNFα. HepG2 cells treated with TNFα and/or Sulindac were immunostained with Bax/6A7 antibody. […] HepG2 cells treated with TNFα or Sulindac alone or together were examined for Bax activation by immunostaining using conformation-sensitive Bax/6A7 antibody. Significant Bax staining was observed only when cells were treated with both TNFα and Sulindac (FIG. 6E). Cross-talk between extrinsic and intrinsic apoptotic pathways can be linked through Bid cleavage and activation (Li et al., Cell 94 (4), 491-501 (1998)). […] PC3 cells transfected with CA-AKT or DN-AKT were treated with TNFα and/or Sulindac, and analyzed by immunoblotting (FIG. 6F). Activation of caspase-8 (FIG. 6G) and Bax (FIG. 6H) by Sulindac and TNFα. HepG2 cells transfected with CA-AKT were treated with TNFα and Sulindac, and immunostained with anti-cleaved caspase-8 or Bax/6A7 antibody. […] Sulindac/TNFα-induced PARP cleavage was inhibited by transfection of constitutive-active AKT (CA-AKT) but enhanced by transfection of dominant-negative AKT (DN-AKT) (FIG. 6F). Consistently, induction of apoptosis (FIG. 17B) and activation of caspase-8 (FIG. 6G) and Bax (FIG. 6H) by Sulindac/TNFα combination was inhibited by CA-AKT.

RARγ protein = RARγ protein (Homo sapiens, UniProt P13631); assay: Ligand-binding assay with [3H]all-trans-RA; conditions: competition with [3H]all-trans-RA
Protocol: Purified RARγ protein was incubated with [^3H]all-trans-RA in the presence or absence of Sulindac or unlabeled all-trans RA. Bound [^3H]all-trans-RA was quantitated by liquid scintillation counting.

T4 sequence (P22736 whole entry, species assumed): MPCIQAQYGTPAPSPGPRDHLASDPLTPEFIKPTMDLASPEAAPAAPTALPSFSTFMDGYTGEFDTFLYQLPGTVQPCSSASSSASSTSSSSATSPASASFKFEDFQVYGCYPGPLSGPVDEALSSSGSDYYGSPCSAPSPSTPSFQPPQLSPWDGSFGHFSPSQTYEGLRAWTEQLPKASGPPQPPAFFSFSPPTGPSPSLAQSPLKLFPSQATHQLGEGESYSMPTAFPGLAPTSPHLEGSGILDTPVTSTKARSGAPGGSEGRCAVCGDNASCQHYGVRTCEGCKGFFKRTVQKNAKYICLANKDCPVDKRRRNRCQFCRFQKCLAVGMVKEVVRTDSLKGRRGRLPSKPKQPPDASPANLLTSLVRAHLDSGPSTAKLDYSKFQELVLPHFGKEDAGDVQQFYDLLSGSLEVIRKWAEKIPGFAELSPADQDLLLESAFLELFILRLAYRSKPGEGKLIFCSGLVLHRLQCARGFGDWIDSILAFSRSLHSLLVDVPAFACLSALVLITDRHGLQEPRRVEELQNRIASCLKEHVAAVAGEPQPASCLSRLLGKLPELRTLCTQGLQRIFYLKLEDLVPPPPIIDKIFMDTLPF
T5 sequence (P10826 whole entry, species assumed): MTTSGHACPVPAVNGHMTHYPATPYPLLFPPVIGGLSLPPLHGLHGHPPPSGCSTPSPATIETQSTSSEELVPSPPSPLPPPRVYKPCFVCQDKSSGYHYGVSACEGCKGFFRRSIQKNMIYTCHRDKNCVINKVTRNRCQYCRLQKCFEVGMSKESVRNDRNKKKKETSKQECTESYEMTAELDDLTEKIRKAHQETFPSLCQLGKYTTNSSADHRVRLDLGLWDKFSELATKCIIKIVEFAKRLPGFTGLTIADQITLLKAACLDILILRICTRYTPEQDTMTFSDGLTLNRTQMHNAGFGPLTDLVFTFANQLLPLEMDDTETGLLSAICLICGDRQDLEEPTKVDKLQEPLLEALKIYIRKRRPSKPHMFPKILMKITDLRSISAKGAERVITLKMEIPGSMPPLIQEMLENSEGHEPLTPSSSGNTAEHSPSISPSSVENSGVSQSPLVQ
T3 sequence (P19793 whole entry): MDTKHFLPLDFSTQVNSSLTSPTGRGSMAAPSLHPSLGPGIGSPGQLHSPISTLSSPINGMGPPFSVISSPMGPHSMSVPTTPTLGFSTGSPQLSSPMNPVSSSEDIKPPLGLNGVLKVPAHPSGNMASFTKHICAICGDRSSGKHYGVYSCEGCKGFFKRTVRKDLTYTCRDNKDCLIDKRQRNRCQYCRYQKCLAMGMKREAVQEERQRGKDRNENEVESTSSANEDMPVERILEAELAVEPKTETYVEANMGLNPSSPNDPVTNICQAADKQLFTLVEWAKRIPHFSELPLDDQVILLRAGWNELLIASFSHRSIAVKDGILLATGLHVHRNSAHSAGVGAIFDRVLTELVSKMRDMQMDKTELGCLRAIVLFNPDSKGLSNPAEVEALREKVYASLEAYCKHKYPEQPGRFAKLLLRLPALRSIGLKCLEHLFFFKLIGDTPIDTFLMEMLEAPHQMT
Sequence of RARγ protein (P13631 whole entry, species assumed): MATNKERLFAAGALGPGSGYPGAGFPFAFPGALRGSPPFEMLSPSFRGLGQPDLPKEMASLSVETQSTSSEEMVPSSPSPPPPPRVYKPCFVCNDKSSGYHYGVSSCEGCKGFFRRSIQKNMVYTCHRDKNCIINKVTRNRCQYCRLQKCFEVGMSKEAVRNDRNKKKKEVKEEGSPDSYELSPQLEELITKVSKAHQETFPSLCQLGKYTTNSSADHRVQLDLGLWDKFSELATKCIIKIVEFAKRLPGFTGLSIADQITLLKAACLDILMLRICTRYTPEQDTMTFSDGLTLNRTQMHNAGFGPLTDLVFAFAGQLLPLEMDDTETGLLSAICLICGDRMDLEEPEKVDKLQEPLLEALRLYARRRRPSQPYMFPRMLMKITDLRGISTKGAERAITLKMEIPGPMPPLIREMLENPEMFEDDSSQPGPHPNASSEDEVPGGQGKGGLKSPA
T1 sequence (P05979 25-600): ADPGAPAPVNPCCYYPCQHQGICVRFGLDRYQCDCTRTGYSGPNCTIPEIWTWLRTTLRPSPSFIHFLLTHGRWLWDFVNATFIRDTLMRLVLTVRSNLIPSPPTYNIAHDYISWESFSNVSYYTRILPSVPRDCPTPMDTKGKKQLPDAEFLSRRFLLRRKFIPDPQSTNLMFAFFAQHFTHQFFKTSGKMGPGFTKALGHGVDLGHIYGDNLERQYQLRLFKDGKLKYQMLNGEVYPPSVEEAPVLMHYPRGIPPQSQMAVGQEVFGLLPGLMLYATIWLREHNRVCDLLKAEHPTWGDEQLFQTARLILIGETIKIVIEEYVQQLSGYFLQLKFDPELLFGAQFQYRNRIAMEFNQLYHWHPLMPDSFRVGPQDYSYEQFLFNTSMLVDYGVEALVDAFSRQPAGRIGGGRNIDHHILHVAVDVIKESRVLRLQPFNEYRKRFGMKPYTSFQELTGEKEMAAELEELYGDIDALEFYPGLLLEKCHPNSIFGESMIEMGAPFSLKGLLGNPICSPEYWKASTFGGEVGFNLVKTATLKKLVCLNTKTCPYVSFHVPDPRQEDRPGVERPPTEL
Sequence of RXRα LBD (P19793 227-458 limits assumed): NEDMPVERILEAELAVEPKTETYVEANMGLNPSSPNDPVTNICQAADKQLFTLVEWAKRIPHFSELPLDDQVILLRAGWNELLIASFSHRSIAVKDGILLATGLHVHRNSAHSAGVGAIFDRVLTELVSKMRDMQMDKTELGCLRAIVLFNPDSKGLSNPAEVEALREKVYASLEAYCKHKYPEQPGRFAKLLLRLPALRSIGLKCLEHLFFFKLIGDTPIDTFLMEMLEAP
T2 sequence (P35354 18-604): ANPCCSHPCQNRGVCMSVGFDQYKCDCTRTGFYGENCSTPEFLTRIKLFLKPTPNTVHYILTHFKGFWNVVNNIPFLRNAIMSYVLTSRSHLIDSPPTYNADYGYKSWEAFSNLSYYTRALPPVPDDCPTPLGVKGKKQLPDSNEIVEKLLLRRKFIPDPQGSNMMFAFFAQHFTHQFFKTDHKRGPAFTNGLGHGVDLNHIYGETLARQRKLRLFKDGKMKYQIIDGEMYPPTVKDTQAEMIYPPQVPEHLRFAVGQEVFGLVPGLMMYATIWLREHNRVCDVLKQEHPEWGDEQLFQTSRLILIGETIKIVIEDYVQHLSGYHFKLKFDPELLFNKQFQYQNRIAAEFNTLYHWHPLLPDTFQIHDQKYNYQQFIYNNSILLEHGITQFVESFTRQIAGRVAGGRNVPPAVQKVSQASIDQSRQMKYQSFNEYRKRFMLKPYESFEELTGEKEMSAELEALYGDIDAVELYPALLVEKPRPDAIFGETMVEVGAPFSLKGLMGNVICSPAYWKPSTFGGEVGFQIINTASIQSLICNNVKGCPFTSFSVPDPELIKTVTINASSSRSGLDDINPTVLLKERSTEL

inhibition of COX-1 activity (COX-1) | inhibition of COX-2 activity (COX-2) | SMILES | development of cancer in patient at elevated risk (cancer) | binding to RXRα in cells by HPLC (RXRα) | binding to Nur77 in cells by HPLC (Nur77) | binding to RAR in cells by HPLC (RARβ) | binding to RXRα by altered sensitivity to chymotrypsin digestion (RXRα LBD) | cells showing Bax staining, Sulindac/TNFα (HepG2 cells; Bax/6A7 antibody) | cells exhibiting Bax staining, CA-AKT-transfected (HepG2 cells; TNFα and Sulindac) | cells exhibiting Bax staining, nontransfected (HepG2 cells; TNFα and Sulindac) | binding to RARγ (RARγ protein)
no detectable inhibition | no detectable inhibition | CC1=C(CC(=O)O)c2cc(F)ccc2/C1=C\c1ccc(C(C)C)cc1 [K-80003, (Z)-2-(3-(4-Iso-propylbenzylidene)-6-fluoro-2-methyl-3H-inden-1-yl)acetic acid] | does not develop cancer |  |  |  |  |  |  |  | 
 |  | CSc1ccc(/C=C2/C(C)=C(CC(=O)O)c3cc(F)ccc32)cc1 [Sulindac, (Z)-2-(3-(4-(Methylthio)benzylidene)-6-fluoro-2-methyl-3H-inden-1-yl)acetic acid] |  | direct binding | not other nuclear receptors such as RAR and Nur77 | not other nuclear receptors such as RAR and Nur77 | confirmed | about 60% | about 13% | About 60% | did not bind
